This note sets out measurements from patent US8466181B2, “1,2,3-triazole-imidazole compounds” (Hoffmann-La Roche Inc., priority 2010, dated 2013).

The structures appear in SMILES notation.

One test deals with T1, human GABA A receptor α5β3γ2 (GABA Aa5) (Homo sapiens, UniProt P18507+P31644).
T1 construct: expressed in transfected cells; host or cells: HEK293 cells, transiently transfected; membranes prepared
The test is described as follows: [3H]flumazenil competition binding, HEK293 cells expressing human receptors.
Settings: not given
Here is the method:
The ability of compounds present invention to bind to GABA A receptor subtypes was determined by competition for [^3H]flumazenil (85 Ci/mmol; Roche) binding to HEK293 cells expressing rat (stably transfected) or human (transiently transfected) receptors of composition α1β2/3γ2, α2β3γ2, α3β3γ2 and α5β3γ2.
Cell pellets were suspended in Krebs-tris buffer (4.8 mM KCl, 1.2 mM CaCl2, 1.2 mM MgCl2, 120 mM NaCl, 15 mM Tris; pH 7.5; binding assay buffer), homogenized by polytron for ca. 20 sec on ice and centrifuged for 60 min at 4° C. (50000 g; Sorvall, rotor: SM24=20000 rpm). The cell pellets were resuspended in Krebs-tris buffer and homogenized by polytron for ca. 15 sec on ice. Protein was measured (Bradford method, Bio-Rad) and aliquots of 1 mL were prepared and stored at −80° C.
Assays were incubated to equilibrium for 1 hour at 4° C. and harvested onto GF/C uni-filters (Packard) by filtration using a Packard harvester and washing with ice-cold wash buffer (50 mM Tris; pH 7.5). After drying, filter-retained radioactivity was detected by liquid scintillation counting.
Ki values were calculated using Excel-Fit (Microsoft) and are the means of two determinations.
Representative test results, obtained by the above described assay measuring binding affinity to HEK293 cells expressing human (h) receptors, are shown in Table 1 below.
With `CC(=O)c1ccc(-n2cnc(-c3c(-c4ccccc4F)nnn3C)c2)cc1` [Example 10, 1-(4-(4-(4-(2-Fluorophenyl)-1-methyl-1H-1,2,3-triazol-5-yl)-1H-imidazol-1-yl)phenyl)ethanone], the Ki is 29.6 nM.

Still in this test, the particulars now being: displacement of [3H]flumazenil 0.5 nM; HEK293 transiently transfected human receptors; means of two determinations; read-out: hKi (GABA Aa5).
As to `Cn1nnc(-c2ccc(F)cc2)c1-c1cn(-c2ccc(C(F)(F)F)cn2)cn1` [Example 15, 2-{4-[5-(4-Fluoro-phenyl)-3-methyl-3H-[1,2,3]triazol-4-yl]-imidazol-1-yl}-5-trifluoromethyl-pyridine], the Ki is 82.2 nM.
The same measure, in the same setting: the result for `Cn1nnc(-c2ccc(F)cc2)c1-c1cn(-c2ccc(C(=O)NC3CCOCC3)cc2)cn1` [Example 4, 4-{4-[5-(4-Fluoro-phenyl)-3-methyl-3H-[1,2,3]triazol-4-yl]-imidazol-1-yl}-N-(tetrahydropyran-4-yl)-benzamide] reads 36.6 nM; that for `CC(C)NC(=O)c1ccc(-n2cnc(-c3c(-c4ccc(F)cc4)nnn3C)c2)cc1` [Example 3, 4-{4-[5-(4-Fluoro-phenyl)-3-methyl-3H-[1,2,3]triazol-4-yl]-imidazol-1-yl}-N-isopropyl-benzamide], 21.1 nM.
Same read-out and setting: the same measure for `COC(=O)c1ccc(-n2cnc(-c3c(-c4ccccc4F)nnn3C)c2)nc1` [Example 20, Methyl 6-(4-(4-(2-fluorophenyl)-1-methyl-1H-1,2,3-triazol-5-yl)-1H-imidazol-1-yl)nicotinate]: 16.2 nM.
For `Cc1nnn(-c2ccccc2F)c1-c1cn(-c2ccc(C(=O)NN3CCOCC3)cn2)cn1` [Example 51, 6-(4-(1-(2-Fluorophenyl)-4-methyl-1H-1,2,3-triazol-5-yl)-1H-imidazol-1-yl)-N-morpholinonicotinamide], the Ki came to 50.5 nM.
On the same count and under the same terms, the result for `Cc1nnn(-c2ccc(F)cc2)c1-c1cn(-c2ccc(C(=O)NC3CCOCC3)cn2)cn1` [Example 37, 6-{4-[3-(4-Fluoro-phenyl)-5-methyl-3H-[1,2,3]triazol-4-yl]-imidazol-1-yl}-N-(tetrahydropyran-4-yl)-nicotinamide] reads 25.9 nM; that for `Cc1nnn(-c2ccc(F)cc2)c1-c1cn(-c2ccc(C(F)(F)F)cc2)cn1` [Example 31, 1-(4-Fluoro-phenyl)-4-methyl-5-[1-(4-trifluoromethyl-phenyl)-1H-imidazol-4-yl]-1H-[1,2,3]triazole], 49.2 nM; that for `Cn1nnc(-c2ccccc2F)c1-c1cn(-c2ccc(C(=O)NC3CC3)cn2)cn1` [Example 29, N-Cyclopropyl-6-(4-(4-(2-fluorophenyl)-1-methyl-1H-1,2,3-triazol-5-yl)-1H-imidazol-1-yl)nicotinamide], 9.5 nM.
Same read-out and setting: the result for `Cn1nnc(-c2ccc(F)cc2)c1-c1cn(-c2ccc(C(=O)NC3(C)COC3)cn2)cn1` [Example 13, 6-{4-[5-(4-Fluoro-phenyl)-3-methyl-3H-[1,2,3]triazol-4-yl]-imidazol-1-yl}-N-(3-methyl-oxetan-3-yl)-nicotinamide] reads 14.6 nM.
Still for that read-out and setting: the same measure for `Cn1nnc(-c2ccc(F)cc2)c1-c1cn(-c2ccc(C(N)=O)cc2)cn1` [Example 7, 4-{4-[5-(4-Fluoro-phenyl)-3-methyl-3H-[1,2,3]triazol-4-yl]-imidazol-1-yl}-benzamide]: 18.8 nM; for `Cc1nnn(-c2ccccc2F)c1-c1cn(-c2ccc(C(=O)N3CC4(COC4)C3)cn2)cn1` [Example 49, (6-(4-(1-(2-Fluorophenyl)-4-methyl-1H-1,2,3-triazol-5-yl)-1H-imidazol-1-yl)pyridin-3-yl)(2-oxa-6-azaspiro[3.3]heptan-6-yl)methanone]: 90 nM; for `Cn1nnc(-c2ccc(F)cc2)c1-c1cn(-c2ccc(C(N)=O)cn2)cn1` [Example 16, 6-(4-(4-(4-Fluorophenyl)-1-methyl-1H-1,2,3-triazol-5-yl)-1H-imidazol-1-yl)nicotinamide]: 12.1 nM.
Regarding `Cc1nnn(-c2ccc(F)cc2)c1-c1cn(-c2ccc(C(=O)NC3CC3)cn2)cn1` [Example 42, N-Cyclopropyl-6-(4-(1-(4-fluorophenyl)-4-methyl-1H-1,2,3-triazol-5-yl)-1H-imidazol-1-yl)nicotinamide], the Ki stood at 3.2 nM.
On the same count and under the same terms, the same measure for `Cc1nnn(-c2ccccc2F)c1-c1cn(-c2ccc(C(=O)NC(C)C)cn2)cn1` [Example 43, 6-(4-(1-(2-Fluorophenyl)-4-methyl-1H-1,2,3-triazol-5-yl)-1H-imidazol-1-yl)-N-isopropylnicotinamide]: 15.1 nM; for `Cc1nnn(-c2ccccc2F)c1-c1cn(-c2ccc(C(=O)NC3CCOCC3)cn2)cn1` [Example 46, 6-(4-(1-(2-Fluorophenyl)-4-methyl-1H-1,2,3-triazol-5-yl)-1H-imidazol-1-yl)-N-(tetrahydro-2H-pyran-4-yl)nicotinamide]: 49 nM; for `Cc1nnn(-c2ccc(F)cc2)c1-c1cn(-c2ccc(C(N)=O)cn2)cn1` [Example 40, 6-(4-(1-(4-Fluorophenyl)-4-methyl-1H-1,2,3-triazol-5-yl)-1H-imidazol-1-yl)nicotinamide]: 12.6 nM.
For `COC(=O)c1ccc(-n2cnc(-c3c(-c4ccccc4Cl)nnn3C)c2)nc1` [Example 17, Methyl 6-(4-(4-(2-chlorophenyl)-1-methyl-1H-1,2,3-triazol-5-yl)-1H-imidazol-1-yl)nicotinate], the Ki was 68.8 nM.
Same read-out and setting: the same measure for `Cc1nnn(-c2ccccc2F)c1-c1cn(-c2ccc(C(=O)NC3CC3)cn2)cn1` [Example 52, N-Cyclopropyl-6-(4-(1-(2-fluorophenyl)-4-methyl-1H-1,2,3-triazol-5-yl)-1H-imidazol-1-yl)nicotinamide]: 10.9 nM.
Still for that read-out and setting: the same measure for `Cn1nnc(-c2ccccc2F)c1-c1cn(-c2ccc(C(N)=O)cn2)cn1` [Example 25, 6-(4-(4-(2-Fluorophenyl)-1-methyl-1H-1,2,3-triazol-5-yl)-1H-imidazol-1-yl)nicotinamide]: 19.3 nM; for `Cn1nnc(-c2ccc(F)cc2)c1-c1cn(-c2ccc(C(=O)NC3CCOCC3)cn2)cn1` [Example 12, 6-{4-[5-(4-Fluoro-phenyl)-3-methyl-3H-[1,2,3]triazol-4-yl]-imidazol-1-yl}-N-(tetrahydropyran-4-yl)-nicotinamide]: 33 nM; for `Cc1nnn(-c2ccccc2F)c1-c1cn(-c2ccc(C(N)=O)cn2)cn1` [Example 48, 6-(4-(1-(2-Fluorophenyl)-4-methyl-1H-1,2,3-triazol-5-yl)-1H-imidazol-1-yl)nicotinamide]: 17.8 nM.
`CC(=O)c1ccc(-n2cnc(-c3c(-c4ccc(F)cc4)nnn3C)c2)cc1` [Example 1, 1-(4-{4-[5-(4-Fluoro-phenyl)-3-methyl-3H-[1,2,3]triazol-4-yl]-imidazol-1-yl}-phenyl)-ethanone]: the Ki came to 27.2 nM.
In the case of `COC(=O)c1ccc(-n2cnc(-c3c(C)nnn3-c3ccccc3F)c2)cc1` [Example 33, Methyl 4-(4-(1-(2-fluorophenyl)-4-methyl-1H-1,2,3-triazol-5-yl)-1H-imidazol-1-yl)benzoate], the Ki was determined as 34.5 nM.
The same measure, in the same setting: the same measure for `Cn1nnc(-c2ccccc2F)c1-c1cn(-c2ccc(C(=O)NC3(C)COC3)cn2)cn1` [Example 27, 6-(4-(4-(2-Fluorophenyl)-1-methyl-1H-1,2,3-triazol-5-yl)-1H-imidazol-1-yl)-N-(3-methyloxetan-3-yl)nicotinamide]: 16.1 nM; for `COC(=O)c1ccc(-n2cnc(-c3c(C)nnn3-c3ccc(F)cc3)c2)nc1` [Example 35, Methyl 6-(4-(1-(4-fluorophenyl)-4-methyl-1H-1,2,3-triazol-5-yl)-1H-imidazol-1-yl)nicotinate]: 26.3 nM; for `Cc1nnn(-c2ccc(F)cc2)c1-c1cn(-c2ccc(C(=O)NC(C)(C)CO)cn2)cn1` [Example 41, 6-(4-(1-(4-Fluorophenyl)-4-methyl-1H-1,2,3-triazol-5-yl)-1H-imidazol-1-yl)-N-(1-hydroxy-2-methylpropan-2-yl)nicotinamide]: 20.8 nM.
The same measure, in the same setting: the same measure for `Cc1nnn(-c2ccccc2F)c1-c1cn(-c2ccc(C(=O)NC3(C)COC3)cn2)cn1` [Example 50, 6-(4-(1-(2-Fluorophenyl)-4-methyl-1H-1,2,3-triazol-5-yl)-1H-imidazol-1-yl)-N-(3-methyloxetan-3-yl)nicotinamide]: 17.9 nM.
With `CC(C)NC(=O)c1ccc(-n2cnc(-c3c(-c4ccc(F)cc4)nnn3C)c2)nc1` [Example 11, 6-{4-[5-(4-Fluoro-phenyl)-3-methyl-3H-[1,2,3]triazol-4-yl]-imidazol-1-yl}-N-isopropyl-nicotinamide], the Ki was found to be 14.7 nM.
On the same count and under the same terms, the same measure for `CC(C)NC(=O)c1ccc(-n2cnc(-c3c(-c4ccccc4F)nnn3C)c2)nc1` [Example 23, 6-(4-(4-(2-Fluorophenyl)-1-methyl-1H-1,2,3-triazol-5-yl)-1H-imidazol-1-yl)-N-isopropylnicotinamide]: 54.9 nM.
Still for that read-out and setting: the same measure for `Cc1nnn(-c2ccccc2F)c1-c1cn(-c2ccc(C(=O)NC(C)(C)CO)cn2)cn1` [Example 47, 6-(4-(1-(2-Fluorophenyl)-4-methyl-1H-1,2,3-triazol-5-yl)-1H-imidazol-1-yl)-N-(1-hydroxy-2-methylpropan-2-yl)nicotinamide]: 51.7 nM.
